Results on three compounds are retold here after publication PMC6832266, “Natural Sesquiterpene Lactones of the 4,15-iso-Atriplicolide Type are Inhibitors of Trypanothione Reductase” (Molecules, 2019).

What all share (type): biochemical
The target in assay [1] is T1, trypanothione reductase (TcTR) (Trypanosoma cruzi, UniProt P28593).
T1 construct: gene TPR
Description: NADPH-consumption TR assay on recombinant enzyme, % inhibition at […] after […] min preincubation. The settings on record: read-out: TcTR / % Inhibition at c = 100 μM Preincubation Time (min).

Assay [2] has as its target T2, trypanothione reductase (TbTR) (Trypanosoma brucei, UniProt P39051).
T2 construct: gene TPR
Description: NADPH-consumption TR assay on recombinant enzyme; Lineweaver-Burk kinetics; dilution assay (irreversible, time-dependent).

Assay [3] addresses T2, trypanothione reductase (TbTR). Description: NADPH-consumption TR assay on recombinant enzyme, % inhibition at […] after […] min preincubation; dilution assay. The settings on record: read-out: TbTR / % Inhibition at c = 100 μM Preincubation Time (min).

The structures appear in SMILES notation.

T2 sequence (P39051 whole entry): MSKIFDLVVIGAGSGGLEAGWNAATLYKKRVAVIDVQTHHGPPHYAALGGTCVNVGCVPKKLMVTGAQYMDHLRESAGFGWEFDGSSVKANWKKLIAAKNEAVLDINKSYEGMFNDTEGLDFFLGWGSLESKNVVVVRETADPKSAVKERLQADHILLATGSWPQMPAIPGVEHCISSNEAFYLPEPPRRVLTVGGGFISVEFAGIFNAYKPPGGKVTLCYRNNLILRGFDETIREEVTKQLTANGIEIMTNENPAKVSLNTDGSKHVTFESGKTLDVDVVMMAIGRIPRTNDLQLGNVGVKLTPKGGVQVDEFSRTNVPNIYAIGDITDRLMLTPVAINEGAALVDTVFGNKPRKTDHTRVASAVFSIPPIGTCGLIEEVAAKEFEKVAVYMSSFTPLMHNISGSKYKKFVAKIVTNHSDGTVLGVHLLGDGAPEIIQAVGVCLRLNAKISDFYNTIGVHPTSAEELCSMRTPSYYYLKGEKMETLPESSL
T1 sequence (P28593 whole entry): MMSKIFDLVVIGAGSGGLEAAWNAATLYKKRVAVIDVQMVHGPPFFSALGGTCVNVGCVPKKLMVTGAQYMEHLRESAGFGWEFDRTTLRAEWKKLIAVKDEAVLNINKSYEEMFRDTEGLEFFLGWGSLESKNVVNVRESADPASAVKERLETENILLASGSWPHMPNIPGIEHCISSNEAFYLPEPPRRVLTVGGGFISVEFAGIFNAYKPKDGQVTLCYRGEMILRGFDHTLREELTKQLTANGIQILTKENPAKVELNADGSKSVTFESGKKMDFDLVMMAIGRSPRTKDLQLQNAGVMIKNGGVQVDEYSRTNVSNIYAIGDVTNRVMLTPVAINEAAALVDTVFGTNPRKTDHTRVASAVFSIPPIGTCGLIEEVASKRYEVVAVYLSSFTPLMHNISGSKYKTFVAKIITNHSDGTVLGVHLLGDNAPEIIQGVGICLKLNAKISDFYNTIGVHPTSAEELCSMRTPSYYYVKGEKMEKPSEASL

Consider `C=C1C[C@H]2OC(=O)C(=C)[C@@H]2[C@H](OC(=O)/C(C)=C/C)C[C@@]2(C)OC1=CC2=O` [compound 1, 4,15-iso-Atriplicolide tiglate], for which the inhibition at 100 µM in assay [1] was 89 ± 1%. The Ki in assay [2] worked out at 128 ± 8 µM.

As for `C=C(C)C(=O)O[C@@H]1C[C@@]2(C)OC(=CC2=O)C(=C)C[C@H]2OC(=O)C(=C)[C@H]12` [compound 2, 4,15-iso-atriplicolide methacrylate], the inhibition at 100 µM was found to be 41 ± 1% in assay [1] and 84% in assay [3].

Regarding `C=C1C[C@H]2OC(=O)C(=C)[C@@H]2[C@H](OC(=O)C(C)C)C[C@@]2(C)OC1=CC2=O` [compound 3, 4,15-iso-atriplicolide isobutyrate], the inhibition at 100 µM in assay [1] was 80%; in assay [3], 79%.
